Data on 1 molecule can be found in PMC5724930 (Biochemistry, 2017).

Test [1] deals with T1, PanZ (Escherichia coli, UniProt P37613).
T1 construct: PanZ(WT)
As to the kind of experiment: ITC; also […] Å crystal structure of the PanD–PanZ·AcCoA complex. It is filed as binding. (ITC needs no label: the signal is the heat of the interaction.)

In test [2] the target is T2, PanZ (Escherichia coli, UniProt P37613, R73A).
T2 construct: PanZ(R73A)
In words: ITC. It is filed as binding.

T1 sequence (P37613 whole entry): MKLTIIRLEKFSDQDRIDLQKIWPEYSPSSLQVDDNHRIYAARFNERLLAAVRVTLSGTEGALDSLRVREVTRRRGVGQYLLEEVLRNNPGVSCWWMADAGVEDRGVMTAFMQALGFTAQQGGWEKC
T2 sequence (P37613 whole entry R73A): as the sequence (P37613 whole entry) above, with R73A counted along it

`CC(=O)SCCNC(=O)CCNC(=O)[C@H](O)C(C)(C)COP(=O)(O)OP(=O)(O)OC[C@H]1O[C@@H](n2cnc3c(N)ncnc32)[C@H](O)[C@@H]1OP(=O)(O)O` [AcCoA]: the Kd (usually a measure of binding affinity in units of concentration) at PanZ [1] was 0.524 ± 0.064 µM; on PanZ [2], 220 ± 30 µM.
